Measured values published in ChEMBL document CHEMBL5325414, “Novel neuroprotective pyromeconic acid derivatives with concurrent anti-Aβ deposition, anti-inflammatory, and anti-oxidation properties for treatment of Alzheimer's disease” (Eur J Med Chem, 2023).
Activity calls are given as the source filed them. The calls are words filed in the database; no cut-off is given here.

Assays:
[1] = target: T1, Amyloid-beta precursor protein (Homo sapiens, UniProt P05067); experiment: Inhibition of amyloid beta (1 to 42) (unknown origin) self aggregation at 50 uM relative to control
T1 sequence (P05067 whole entry): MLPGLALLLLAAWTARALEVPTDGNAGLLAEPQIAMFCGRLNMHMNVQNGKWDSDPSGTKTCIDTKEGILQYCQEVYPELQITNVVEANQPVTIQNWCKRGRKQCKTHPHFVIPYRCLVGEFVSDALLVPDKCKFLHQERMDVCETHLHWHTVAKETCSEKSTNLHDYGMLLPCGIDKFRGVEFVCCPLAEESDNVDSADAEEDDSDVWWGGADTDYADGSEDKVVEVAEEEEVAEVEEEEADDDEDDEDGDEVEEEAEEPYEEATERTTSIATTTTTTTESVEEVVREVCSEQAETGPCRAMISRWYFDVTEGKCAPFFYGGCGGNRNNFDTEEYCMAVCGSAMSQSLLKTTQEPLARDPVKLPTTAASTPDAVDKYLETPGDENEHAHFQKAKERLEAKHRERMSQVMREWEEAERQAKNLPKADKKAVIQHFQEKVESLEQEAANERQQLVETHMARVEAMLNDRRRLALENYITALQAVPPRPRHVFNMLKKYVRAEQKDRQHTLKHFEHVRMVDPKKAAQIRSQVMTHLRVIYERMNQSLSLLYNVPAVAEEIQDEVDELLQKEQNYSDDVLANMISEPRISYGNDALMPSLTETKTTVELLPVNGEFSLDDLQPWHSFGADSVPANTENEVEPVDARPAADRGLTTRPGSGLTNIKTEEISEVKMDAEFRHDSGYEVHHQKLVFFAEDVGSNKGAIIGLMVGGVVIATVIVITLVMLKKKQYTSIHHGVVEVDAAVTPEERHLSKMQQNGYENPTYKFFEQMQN

[2] = Metal chelating activity assessed as compound-Mg2+ complex formation by optical shift at 50 uM in PBS buffer 7.4 by UV-vis spectrometric analysis
[3] = target: T1, Amyloid-beta precursor protein; experiment: Inhibition of amyloid beta (1 to 42) (unknown origin) self aggregation assessed as low density in amyloid fibrils compound addition at 50 uM after fibrilation for 24 hrs
[4] = target: T1, Amyloid-beta precursor protein; experiment: Inhibition of Cu2+ induced amyloid beta (1 to 42) (unknown origin) aggregation assessed as depolymerization at 50 uM for 24 hrs by TEM analysis
[5] = target: Amyloid-beta precursor protein (Mus musculus) (UniProt P12023); experiment: Inhibition of amyloid beta (1 to 42) in mouse BV-2 cells by measuring scavenging effect at 2.5 to 10 uM by ThT fluorescence based immunoblot analysis; format: cell-based; settings: dose 2.5-10 µM
Chain of Amyloid-beta precursor protein (Mus musculus) (P12023 whole entry): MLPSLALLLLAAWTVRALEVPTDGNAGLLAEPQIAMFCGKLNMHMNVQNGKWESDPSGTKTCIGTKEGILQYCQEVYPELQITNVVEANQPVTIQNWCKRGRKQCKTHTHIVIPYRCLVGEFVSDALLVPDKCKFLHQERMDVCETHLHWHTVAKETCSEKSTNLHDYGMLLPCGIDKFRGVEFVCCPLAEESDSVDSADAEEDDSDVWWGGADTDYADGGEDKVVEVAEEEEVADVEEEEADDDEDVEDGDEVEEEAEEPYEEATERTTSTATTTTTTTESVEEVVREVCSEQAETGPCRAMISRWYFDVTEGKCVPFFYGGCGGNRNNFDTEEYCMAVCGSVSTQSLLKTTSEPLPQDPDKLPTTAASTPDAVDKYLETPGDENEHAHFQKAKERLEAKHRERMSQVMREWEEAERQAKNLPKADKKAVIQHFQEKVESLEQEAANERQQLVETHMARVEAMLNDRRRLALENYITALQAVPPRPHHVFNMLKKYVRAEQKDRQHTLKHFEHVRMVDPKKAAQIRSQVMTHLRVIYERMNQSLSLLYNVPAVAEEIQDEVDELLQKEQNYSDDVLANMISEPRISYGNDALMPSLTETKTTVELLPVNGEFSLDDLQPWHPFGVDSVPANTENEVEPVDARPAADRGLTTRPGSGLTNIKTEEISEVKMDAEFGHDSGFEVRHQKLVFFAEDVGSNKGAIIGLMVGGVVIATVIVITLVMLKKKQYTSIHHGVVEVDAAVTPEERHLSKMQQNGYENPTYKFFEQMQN

BV-2 [6] = experiment: Effect of amyloid beta (1 to 42) indued apoptosis in mouse BV-2 cells assessed as early apoptotic cells at 5 uM measured by propidium iodide staining based flow cytometric analysis (reference value: 26.12%); format: functional
BV-2 [7] = experiment: Effect of amyloid beta (1 to 42) indued apoptosis in mouse BV-2 cells assessed as late apoptotic cells at 5 uM measured by propidium iodide staining based flow cytometric analysis (reference value: 6.88%); format: functional
BV-2 [8] = experiment: Effect of amyloid beta (1 to 42) indued apoptosis in mouse BV-2 cells assessed as necrotic cells at 5 uM measured by propidium iodide staining based flow cytometric analysis (reference value: 5.72%); format: functional
BV-2 [9] = experiment: Effect of amyloid beta (1 to 42) indued apoptosis in mouse BV-2 cells assessed as early apoptotic cells at 10 uM measured by propidium iodide staining based flow cytometric analysis (reference value: 26.12%); format: functional
[10] = Cmax in Sprague-Dawley rat at 15 mg/kg, IG; format: ADME, organism-based; parameters: dose 15 mg/kg, route ig; settings: in vivo, po
[11] = MRT(0 to t) in Sprague-Dawley rat at 15 mg/kg, IG; format: ADME, organism-based; settings: in vivo, po
[12] = Ratio of drug concentration in hippocampus to plasma of Sprague-Dawley rat at 15 mg/kg, IG measured after 0.167 hrs; format: ADME, organism-based; settings: po
[13] = Ratio of drug concentration in hippocampus to plasma of Sprague-Dawley rat at 15 mg/kg, IG measured after 0.5 hrs; format: ADME, organism-based; settings: po
[14] = Ratio of drug concentration in hippocampus to plasma of Sprague-Dawley rat at 15 mg/kg, IG measured after 2 hrs; format: ADME, organism-based; settings: po
[15] = Ratio of drug concentration in hippocampus to plasma of Sprague-Dawley rat at 15 mg/kg, IG measured after 4 hrs; format: ADME, organism-based; settings: po
[16] = Acute toxicity in mouse assessed as change in behaviour at 2000 mg/kg, IG administered as single dose measured after 14 days; format: organism-based; settings: in vivo, po, 336 h, time 14 day
[17] = Acute toxicity in mouse assessed as change in body weight at 2000 mg/kg, IG administered as single dose measured after 14 days; format: organism-based; settings: in vivo, po, 336 h, time 14 day
Mus musculus [18] = experiment: Anti alzheimer activity in scopolamine induced anxiety in ICR mouse assessed as relieved anxiety pretreated with scopolamine at 3 mg/kg, ip for 31 days followed by compound addition at 20 mg/kg, po at day 7 to 31; format: functional, organism-based; settings: time 25.0 day
Mus musculus [19] = experiment: Anti alzheimer activity in scopolamine induced anxiety in ICR mouse assessed as increase in discrimination ratio pretreated with scopolamine at 3 mg/kg, ip for 31 days followed by compound addition at 20 mg/kg, po at day 7 to 31 by novel object recognition test; format: functional, organism-based; settings: time 25.0 day
Mus musculus [20] = experiment: Neuroprotective effect in scopolamine induced cognitively impaired mouse assessed as reversal of amyloid beta plaque deposition at 20 mg/kg by immunohistochemistry staining analysis; format: functional, organism-based
Mus musculus [21] = experiment: In vivo effect on NRF2 expression in scopolamine induced cognitive impaired mouse assessed as reversal of NRF2 signalling in hippocampus treated at 20 mg/kg by immunoblot analysis; format: functional, organism-based
BV-2 [22] = experiment: Antioxidant activity in H2O2 treated mouse BV-2 cells assessed as reversal of HO-1 level at 5 to 20 uM by immunofluorescence analysis; format: functional, cell-based; settings: dose 5-20 µM
Mus musculus [23] = experiment: In vivo antiinflammatory activity in scopolamine induced cognitive impaired ICR mouse assessed as decrease in Iba1 levels in cortex; format: functional, organism-based

## O=c1ccoc(/C=C/c2ccc(O)c(O)c2)c1O
[1]
  inhibition: 80.3%
[2]
  Activity: inactive
[3]
  Activity: Active
[4]
  inhibition: Active
[5]
  inhibition: Active
BV-2 [6]
  Activity: 8.32%
BV-2 [7]
  Activity: 13.4%
BV-2 [8]
  Activity: 0.84%
BV-2 [9]
  Activity: 22.1%
[10]
  Cmax: 14.4 ng/mL
[11]
  MRT last: 6.36 h
[12]
  Kp at 0.167 h: 0.07
[13]
  Kp at 0.5 h: 2.27
[14]
  Kp at 2 h: 7.12
[15]
  Kp at 4 h: 5.62
[16]
  Activity: Non-Toxic
[17]
  Activity: Non-Toxic
Mus musculus [18]
  Activity: Active
Mus musculus [19]
  Activity: Active
Mus musculus [20]
  Activity: Active
Mus musculus [21]
  Activity: Active
BV-2 [22]
  Activity: Active
Mus musculus [23]
  Activity: Active
